In PMC2843910 (Biochemical pharmacology, 2008):

Biological target: T1, ABCG2 (Homo sapiens, UniProt Q9UNQ0)
T1 sequence (Q9UNQ0 1-655): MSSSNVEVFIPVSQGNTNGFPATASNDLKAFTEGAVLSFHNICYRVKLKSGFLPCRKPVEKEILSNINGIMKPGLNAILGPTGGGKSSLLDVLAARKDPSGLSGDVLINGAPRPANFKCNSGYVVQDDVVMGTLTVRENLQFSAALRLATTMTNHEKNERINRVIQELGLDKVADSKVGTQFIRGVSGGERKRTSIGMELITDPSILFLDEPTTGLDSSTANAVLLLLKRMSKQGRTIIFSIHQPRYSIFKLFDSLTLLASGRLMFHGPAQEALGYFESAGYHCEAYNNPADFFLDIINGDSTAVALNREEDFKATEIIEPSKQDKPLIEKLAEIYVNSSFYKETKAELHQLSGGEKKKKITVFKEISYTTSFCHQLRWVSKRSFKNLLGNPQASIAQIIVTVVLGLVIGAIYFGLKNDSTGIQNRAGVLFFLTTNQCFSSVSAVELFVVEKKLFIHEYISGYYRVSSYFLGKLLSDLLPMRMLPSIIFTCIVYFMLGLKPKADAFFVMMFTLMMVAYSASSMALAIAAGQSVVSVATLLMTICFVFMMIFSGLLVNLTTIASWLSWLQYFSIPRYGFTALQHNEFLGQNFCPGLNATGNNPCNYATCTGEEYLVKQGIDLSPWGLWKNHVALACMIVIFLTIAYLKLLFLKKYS
Format: cell-based

CN(Cc1cnc2nc(N)nc(N)c2n1)c1ccc(C(=O)N[C@@H](CCC(=O)O)C(=O)O)cc1 [[^3H]-methotrexate]
ATP-dependent uptake into membrane vesicles (rapid filtration): inhibited the rates of both methotrexate and E217βG uptake in the membrane vesicles of ABCG2-482-R5
